Laboratory results from ChEMBL document CHEMBL4419163, “Assays for identifying compounds that modulate bitter taste” (2014).

Experiments:
Assay type in all cases: functional, cell-based
[1] = molecular target: T1, Taste receptor type 2 member 42 (Homo sapiens) (UniProt Q7RTR8); experiment: Agonist activity at human TAS2R55 expressed in HEK293T cells co-expressing Galpha15 assessed as increase in intracellular calcium level at 20 mM by Calcium-3 dye based fluorescence assay relative to control
T1 sequence (whole entry): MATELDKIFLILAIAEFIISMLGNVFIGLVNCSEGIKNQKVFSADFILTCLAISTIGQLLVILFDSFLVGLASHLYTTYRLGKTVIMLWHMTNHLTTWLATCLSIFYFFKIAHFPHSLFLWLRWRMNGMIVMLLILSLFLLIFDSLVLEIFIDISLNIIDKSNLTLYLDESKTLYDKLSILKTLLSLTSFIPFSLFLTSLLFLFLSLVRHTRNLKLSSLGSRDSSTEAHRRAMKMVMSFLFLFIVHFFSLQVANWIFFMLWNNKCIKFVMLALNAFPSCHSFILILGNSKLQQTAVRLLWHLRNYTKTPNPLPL

[2] = molecular target: T2, Taste receptor type 2 member 1 (Homo sapiens) (UniProt Q9NYW7); experiment: Agonist activity at human TAS2R1 expressed in HEK293T cells co-expressing Galpha15 assessed as increase in intracellular calcium level at 20 mM by Calcium-3 dye based fluorescence assay relative to control
T2 sequence (whole entry): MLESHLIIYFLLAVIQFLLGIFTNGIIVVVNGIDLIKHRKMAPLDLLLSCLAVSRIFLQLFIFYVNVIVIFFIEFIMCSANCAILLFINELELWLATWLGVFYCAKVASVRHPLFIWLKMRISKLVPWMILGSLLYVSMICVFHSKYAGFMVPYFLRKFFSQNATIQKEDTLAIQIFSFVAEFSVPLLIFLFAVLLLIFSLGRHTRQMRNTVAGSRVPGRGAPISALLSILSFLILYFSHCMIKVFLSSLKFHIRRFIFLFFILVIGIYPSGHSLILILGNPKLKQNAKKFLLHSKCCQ

[3] = molecular target: T3, Taste receptor type 2 member 8 (Homo sapiens) (UniProt Q9NYW2); experiment: Agonist activity at human TAS2R8 expressed in HEK293T cells co-expressing Galpha15 assessed as increase in intracellular calcium level at 20 mM by Calcium-3 dye based fluorescence assay relative to control
T3 sequence (whole entry): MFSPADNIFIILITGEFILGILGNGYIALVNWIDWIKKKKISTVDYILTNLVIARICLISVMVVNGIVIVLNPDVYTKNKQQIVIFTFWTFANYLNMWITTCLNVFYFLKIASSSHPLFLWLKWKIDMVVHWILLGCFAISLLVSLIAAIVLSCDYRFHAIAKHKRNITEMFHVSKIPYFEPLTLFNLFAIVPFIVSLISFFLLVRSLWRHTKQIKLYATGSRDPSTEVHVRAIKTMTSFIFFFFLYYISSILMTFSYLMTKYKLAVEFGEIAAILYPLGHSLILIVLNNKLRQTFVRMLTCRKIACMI

[4] = molecular target: T4, Taste receptor type 2 member 38 (Homo sapiens) (UniProt P59533); experiment: Agonist activity at human TAS2R38 expressed in HEK293T cells co-expressing Galpha15 assessed as increase in intracellular calcium level at 20 mM by Calcium-3 dye based fluorescence assay relative to control
T4 sequence (whole entry): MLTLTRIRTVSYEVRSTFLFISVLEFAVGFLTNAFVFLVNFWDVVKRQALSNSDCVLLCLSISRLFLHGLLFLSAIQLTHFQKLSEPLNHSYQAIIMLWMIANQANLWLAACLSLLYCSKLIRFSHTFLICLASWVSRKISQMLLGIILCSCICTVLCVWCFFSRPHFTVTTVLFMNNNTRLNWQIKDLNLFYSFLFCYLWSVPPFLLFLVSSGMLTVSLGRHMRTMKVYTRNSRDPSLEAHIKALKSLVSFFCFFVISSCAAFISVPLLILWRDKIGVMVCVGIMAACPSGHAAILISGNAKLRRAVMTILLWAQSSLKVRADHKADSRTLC

[5] = molecular target: T5, Taste receptor type 2 member 39 (Homo sapiens) (UniProt P59534); experiment: Agonist activity at human TAS2R39 expressed in HEK293T cells co-expressing Galpha15 assessed as increase in intracellular calcium level at 20 mM by Calcium-3 dye based fluorescence assay relative to control
T5 sequence (whole entry): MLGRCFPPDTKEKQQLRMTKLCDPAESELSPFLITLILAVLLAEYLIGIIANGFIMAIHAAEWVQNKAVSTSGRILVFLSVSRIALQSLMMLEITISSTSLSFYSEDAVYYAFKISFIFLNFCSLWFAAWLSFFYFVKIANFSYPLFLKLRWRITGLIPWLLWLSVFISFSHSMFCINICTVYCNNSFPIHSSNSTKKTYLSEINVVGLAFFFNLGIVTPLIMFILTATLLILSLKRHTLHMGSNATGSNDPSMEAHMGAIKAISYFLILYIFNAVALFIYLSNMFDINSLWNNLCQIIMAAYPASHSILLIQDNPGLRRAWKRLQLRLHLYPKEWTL

[6] = molecular target: T6, Taste receptor type 2 member 9 (Homo sapiens) (UniProt Q9NYW1); experiment: Agonist activity at human TAS2R9 expressed in HEK293T cells co-expressing Galpha15 assessed as increase in intracellular calcium level at 20 mM by Calcium-3 dye based fluorescence assay relative to control
T6 sequence (whole entry): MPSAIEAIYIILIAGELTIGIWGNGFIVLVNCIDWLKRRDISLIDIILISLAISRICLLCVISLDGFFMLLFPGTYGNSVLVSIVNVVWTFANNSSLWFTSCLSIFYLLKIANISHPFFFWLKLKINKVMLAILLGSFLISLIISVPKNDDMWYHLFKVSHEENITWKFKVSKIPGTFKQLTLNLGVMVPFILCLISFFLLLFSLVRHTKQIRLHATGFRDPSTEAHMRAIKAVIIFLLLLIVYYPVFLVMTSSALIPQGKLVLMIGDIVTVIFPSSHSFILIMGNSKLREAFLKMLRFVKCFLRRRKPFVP

[7] = molecular target: T7, Taste receptor type 2 member 13 (Homo sapiens) (UniProt Q9NYV9); experiment: Agonist activity at human TAS2R13 expressed in HEK293T cells co-expressing Galpha15 assessed as increase in intracellular calcium level at 20 mM by Calcium-3 dye based fluorescence assay relative to control
T7 sequence (whole entry): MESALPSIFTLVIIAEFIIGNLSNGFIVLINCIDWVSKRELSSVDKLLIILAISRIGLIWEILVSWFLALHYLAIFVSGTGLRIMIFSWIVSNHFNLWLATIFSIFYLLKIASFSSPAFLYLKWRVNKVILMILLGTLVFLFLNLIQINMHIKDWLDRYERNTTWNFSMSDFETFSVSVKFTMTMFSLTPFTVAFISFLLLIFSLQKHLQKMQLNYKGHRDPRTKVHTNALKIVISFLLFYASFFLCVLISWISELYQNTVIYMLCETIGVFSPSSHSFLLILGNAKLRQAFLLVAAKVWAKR

[Cl-].[K+] [POTASSIUM CHLORIDE]
Activity [1]: < 40%
Activity [2]: < 40%
Activity [3]: < 40%
Activity [4]: < 40%
Activity [5]: < 40%
Activity [6]: > 40%
Activity [7]: > 40%

CC1=CC(=O)NS(=O)(=O)O1
Activity [1]: < 40%
Activity [2]: > 40%
Activity [3]: < 40%
Activity [4]: < 40%
Activity [5]: < 40%
Activity [6]: > 40%
Activity [7]: > 40%

CC(O)C(=O)[O-].[K+] (stereo unspecified)
Activity [1]: < 40%
Activity [2]: < 40%
Activity [3]: < 40%
Activity [4]: < 40%
Activity [5]: < 40%
Activity [6]: > 40%
Activity [7]: > 40%
